Measured values published in PubChem BioAssay AID2060885 (Molecular Pharmacology Branch, DTP, NCI, 2025).
pIC50: −log10 of the molar value.

Tested on: NCI-H23 complex spheroids with HUVEC/MSC, viability
Experiment: Anticancer human tumor NCI-H23 cell line growth inhibition [RAS];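 note: spheroids exposed to compound for 7 days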;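 for viability, T/C: 100% = DMSO vehicle control viability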
Details: for pIC50: curve of first compound; for viability, T/C: stronger effect = lower value
How it was run: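 Multi-cell-type spheroids: tumor cells plus HUVEC endothelial cells and mesenchymal stem cells. RAS-pathway inhibitors were combined with targeted agents, each dosed in half-log steps down from clinical Cmax, or from 10 microM when Cmax was unknown.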

[1] = second compound 0.0316 µM, first compound 0.000949 µM
[2] = second compound 0.0316 µM, first compound 0.003 µM
[3] = second compound 0.0316 µM, first compound 0.00949 µM
[4] = second compound 0.0316 µM, first compound 0.03 µM
[5] = second compound 0.0316 µM, first compound 0.0949 µM
[6] = second compound 0.0316 µM, first compound 0.3 µM
[7] = second compound 0.1 µM, first compound 0.000949 µM
[8] = second compound 0.1 µM, first compound 0.003 µM
[9] = second compound 0.1 µM, first compound 0.00949 µM
[10] = second compound 0.1 µM, first compound 0.03 µM
[11] = second compound 0.1 µM, first compound 0.0949 µM
[12] = second compound 0.1 µM, first compound 0.3 µM
[13] = second compound 0.316 µM, first compound 0.000949 µM
[14] = second compound 0.316 µM, first compound 0.003 µM
[15] = second compound 0.316 µM, first compound 0.00949 µM
[16] = second compound 0.316 µM, first compound 0.03 µM
[17] = second compound 0.316 µM, first compound 0.0949 µM
[18] = second compound 0.316 µM, first compound 0.3 µM
[19] = second compound 1 µM, first compound 0.000949 µM
[20] = second compound 1 µM, first compound 0.003 µM
[21] = second compound 1 µM, first compound 0.00949 µM
[22] = second compound 1 µM, first compound 0.03 µM
[23] = second compound 1 µM, first compound 0.0949 µM
[24] = second compound 1 µM, first compound 0.3 µM

SMILES: CC1(C)CCC(Nc2ncc(C(F)(F)F)c(-c3c[nH]c4c(P(C)(C)=O)c(C#N)ccc34)n2)CN1 (stereo unspecified) + C=CC(=O)N1CCN(c2nc(OCC3CCCN3C)nc3c(F)c(-c4nc(N)cc(C)c4C(F)(F)F)c(Cl)cc23)C(C)C1
- pIC50 (second compound 0.00316 µM): 8.95
- pIC50 (second compound 0.01 µM): > 9.02
- pIC50 (second compound 0.0316 µM): > 9.02
- pIC50 (second compound 0.1 µM): > 9.02
- pIC50 (second compound 0.316 µM): > 9.02
- pIC50 (second compound 1 µM): > 9.02
- viability, T/C (second compound 0.00316 µM, first compound 0.000949 µM): 50.9%
- viability, T/C (second compound 0.00316 µM, first compound 0.003 µM): 41.2%
- viability, T/C (second compound 0.00316 µM, first compound 0.00949 µM): 37%
- viability, T/C (second compound 0.00316 µM, first compound 0.03 µM): 25.2%
- viability, T/C (second compound 0.00316 µM, first compound 0.0949 µM): 26.9%
- viability, T/C (second compound 0.00316 µM, first compound 0.3 µM): 27.6%
- viability, T/C (second compound 0.01 µM, first compound 0.000949 µM): 36.5%
- viability, T/C (second compound 0.01 µM, first compound 0.003 µM): 38.3%
- viability, T/C (second compound 0.01 µM, first compound 0.00949 µM): 24.9%
- viability, T/C (second compound 0.01 µM, first compound 0.03 µM): 24%
- viability, T/C (second compound 0.01 µM, first compound 0.0949 µM): 22.5%
- viability, T/C (second compound 0.01 µM, first compound 0.3 µM): 20%
- viability, T/C [1]: 33.6%
- viability, T/C [2]: 27.2%
- viability, T/C [3]: 23.2%
- viability, T/C [4]: 21%
- viability, T/C [5]: 21.2%
- viability, T/C [6]: 18.2%
- viability, T/C [7]: 29.8%
- viability, T/C [8]: 28.9%
- viability, T/C [9]: 23.1%
- viability, T/C [10]: 21.3%
- viability, T/C [11]: 19.2%
- viability, T/C [12]: 19.4%
- viability, T/C [13]: 30.1%
- viability, T/C [14]: 30.4%
- viability, T/C [15]: 24.1%
- viability, T/C [16]: 20.7%
- viability, T/C [17]: 20.6%
- viability, T/C [18]: 19.5%
- viability, T/C [19]: 29.3%
- viability, T/C [20]: 28.7%
- viability, T/C [21]: 27.5%
- viability, T/C [22]: 22.4%
- viability, T/C [23]: 23.6%
- viability, T/C [24]: 20.5%

SMILES: CCc1c2c(nc3ccc(O)cc13)-c1cc3c(c(=O)n1C2)COC(=O)[C@]3(O)CC + C#Cc1c(F)ccc2cc(O)cc(-c3ncc4c(N5CC6CCC(C5)N6)nc(OCC56CCCN5CC(F)C6)nc4c3F)c12
- pIC50 (second compound 0.0316 µM): 8.25
- pIC50 (second compound 0.1 µM): 8.32
- pIC50 (second compound 0.316 µM): 8.31
- pIC50 (second compound 1 µM): 8.54
- pIC50 (second compound 3.16 µM): 8.90
- pIC50 (second compound 10 µM): > 9.02
- viability, T/C [1]: 74.6%
- viability, T/C [2]: 75.5%
- viability, T/C [3]: 29.9%
- viability, T/C [4]: 13.3%
- viability, T/C [5]: 9.2%
- viability, T/C [6]: 5.86%
- viability, T/C [7]: 87.8%
- viability, T/C [8]: 64.6%
- viability, T/C [9]: 28.2%
- viability, T/C [10]: 14.7%
- viability, T/C [11]: 9.07%
- viability, T/C [12]: 6.92%
- viability, T/C [13]: 96.7%
- viability, T/C [14]: 67.8%
- viability, T/C [15]: 25.4%
- viability, T/C [16]: 12.8%
- viability, T/C [17]: 9.27%
- viability, T/C [18]: 5.24%
- viability, T/C [19]: 86.9%
- viability, T/C [20]: 49.4%
- viability, T/C [21]: 18.9%
- viability, T/C [22]: 12.2%
- viability, T/C [23]: 7.17%
- viability, T/C [24]: 4.02%
- viability, T/C (second compound 3.16 µM, first compound 0.000949 µM): 56.1%
- viability, T/C (second compound 3.16 µM, first compound 0.003 µM): 30.8%
- viability, T/C (second compound 3.16 µM, first compound 0.00949 µM): 11.7%
- viability, T/C (second compound 3.16 µM, first compound 0.03 µM): 5.93%
- viability, T/C (second compound 3.16 µM, first compound 0.0949 µM): 3.68%
- viability, T/C (second compound 3.16 µM, first compound 0.3 µM): 2.2%
- viability, T/C (second compound 10 µM, first compound 0.000949 µM): 31.7%
- viability, T/C (second compound 10 µM, first compound 0.003 µM): 20.2%
- viability, T/C (second compound 10 µM, first compound 0.00949 µM): 8.85%
- viability, T/C (second compound 10 µM, first compound 0.03 µM): 5.36%
- viability, T/C (second compound 10 µM, first compound 0.0949 µM): 3.22%
- viability, T/C (second compound 10 µM, first compound 0.3 µM): 2.27%

SMILES: O=C(c1ccc(F)c(F)c1Nc1ccc(I)cc1F)N1CC(O)([C@@H]2CCCCN2)C1 + C=CC(=O)N1CCN(c2nc(OCC3CCCN3C)nc3c(F)c(-c4nc(N)cc(C)c4C(F)(F)F)c(Cl)cc23)C(C)C1
- pIC50 (second compound 0.00316 µM): 7.36
- pIC50 (second compound 0.01 µM): 8.35
- pIC50 (second compound 0.0316 µM): > 8.50
- pIC50 (second compound 0.1 µM): > 8.50
- pIC50 (second compound 0.316 µM): > 8.50
- pIC50 (second compound 1 µM): > 8.50
- viability, T/C (second compound 0.00316 µM, first compound 0.00316 µM): 58.7%
- viability, T/C (second compound 0.00316 µM, first compound 0.01 µM): 61%
- viability, T/C (second compound 0.00316 µM, first compound 0.0316 µM): 52.9%
- viability, T/C (second compound 0.00316 µM, first compound 0.1 µM): 40.7%
- viability, T/C (second compound 0.00316 µM, first compound 0.316 µM): 29.3%
- viability, T/C (second compound 0.00316 µM, first compound 1 µM): 16.8%
- viability, T/C (second compound 0.01 µM, first compound 0.00316 µM): 50.9%
- viability, T/C (second compound 0.01 µM, first compound 0.01 µM): 50.1%
- viability, T/C (second compound 0.01 µM, first compound 0.0316 µM): 41.1%
- viability, T/C (second compound 0.01 µM, first compound 0.1 µM): 40%
- viability, T/C (second compound 0.01 µM, first compound 0.316 µM): 28.6%
- viability, T/C (second compound 0.01 µM, first compound 1 µM): 14.9%
- viability, T/C (second compound 0.0316 µM, first compound 0.00316 µM): 44.7%
- viability, T/C (second compound 0.0316 µM, first compound 0.01 µM): 48.9%
- viability, T/C (second compound 0.0316 µM, first compound 0.0316 µM): 37.2%
- viability, T/C (second compound 0.0316 µM, first compound 0.1 µM): 32.4%
- viability, T/C (second compound 0.0316 µM, first compound 0.316 µM): 24%
- viability, T/C (second compound 0.0316 µM, first compound 1 µM): 11.8%
- viability, T/C (second compound 0.1 µM, first compound 0.00316 µM): 37.1%
- viability, T/C (second compound 0.1 µM, first compound 0.01 µM): 40.2%
- viability, T/C (second compound 0.1 µM, first compound 0.0316 µM): 33.3%
- viability, T/C (second compound 0.1 µM, first compound 0.1 µM): 28.9%
- viability, T/C (second compound 0.1 µM, first compound 0.316 µM): 24%
- viability, T/C (second compound 0.1 µM, first compound 1 µM): 13.4%
- viability, T/C (second compound 0.316 µM, first compound 0.00316 µM): 40%
- viability, T/C (second compound 0.316 µM, first compound 0.01 µM): 37.5%
- viability, T/C (second compound 0.316 µM, first compound 0.0316 µM): 30.6%
- viability, T/C (second compound 0.316 µM, first compound 0.1 µM): 28%
- viability, T/C (second compound 0.316 µM, first compound 0.316 µM): 21.2%
- viability, T/C (second compound 0.316 µM, first compound 1 µM): 13.7%
- viability, T/C (second compound 1 µM, first compound 0.00316 µM): 39%
- viability, T/C (second compound 1 µM, first compound 0.01 µM): 38.4%
- viability, T/C (second compound 1 µM, first compound 0.0316 µM): 31.4%
- viability, T/C (second compound 1 µM, first compound 0.1 µM): 32.7%
- viability, T/C (second compound 1 µM, first compound 0.316 µM): 24.2%
- viability, T/C (second compound 1 µM, first compound 1 µM): 12.6%
